The source of these data is publication PMC9207808 (ACS Chemical Biology, 2022).

Residues, ends and D or L forms follow the SMILES beside them.

Test [1] concerns DocSTm. In words: Differential scanning fluorimetry (thermal stabilisation of Doc). In kind it is binding, S. Typhimurium. The settings on record: for Average Tm / Tm: DocSTm 5 µM + 50 µM binder; for Average Tm: average of 3 replicates; for melting temperature shift ΔTm: DSF, DocSTm 5 μM, analyte 50 μM, Tm with analyte minus Tm of free DocSTm (42.9 ± 0.9 °C), SYPRO Orange, 20 mM K2HPO4, 50 mM (NH4)2SO4, pH 8.0, triplicate. The method, then: Experiments were performed in a Mx3005P qPCR System (Agilent) collecting fluorescence data with a temperature ramp of 25 to 95 °C. Samples were prepared in a buffer containing 20 mM K2HPO4 and 50 mM (NH4)2SO4 at pH 8.0. The SYPRO Orange dye (Sigma-Aldrich, 5000× stock in DMSO) was used to monitor protein denaturation and was diluted to a final concentration of 3×. For binding experiments, the final concentration of Doc was 5 μM. Each condition was performed in triplicate (ESI section 4) and the melting curves were plotted using GraphPad Prism 5 (GraphPad Software, U.S.A.). The melting temperatures were obtained by fitting the sigmoidal section of the curves to a Boltzmann sigmoid function.

Test [2] concerns the target DocSTm. In words: Surface plasmon resonance binding to immobilised Doc. On the set-up: species or system S. Typhimurium. The following applies: for koff × 10^-6 / kon × 10^6: 1:1 kinetic fit, mean ± SD of at least 3 replicates; for kon × 10^6: single-cycle kinetics (multicycle for PhdSTm1-73); for Half-life of the complex: t1/2 = ln2 / koff. The method, then: Experiments were performed in a Biacore S200 (Cytiva) with a Series S sensor chip NTA (Cytiva). The data was analyzed using the Biacore Evaluation Software (Cytiva) and curves were plotted using GraphPad Prism 5 (GraphPad Software, U.S.A.). All experiments were performed at 22 °C with a running buffer containing 10 mM HEPES, 500 mM NaCl, 50 μM EDTA, and 0.005% (v/v) TWEEN 20 at pH 8.0. The surface was conditioned following the standard manufacturer’s guidelines and protein immobilization was performed with a 30–60 s pulse (flow rate of 5 μL/min) of Doc (150 nM) in running buffer. […] Surface regeneration was performed with a 1 min pulse of 0.5 M imidazole followed by a 1 min pulse of 0.35 M of EDTA at pH 8.0.
Binding to Doc was performed using a multicycle kinetics (MCK) setup for peptides 7, 10, and 14, while the remaining samples were tested using a single-cycle kinetics (SCK) setup. The surface was fully regenerated in between each analyte in both cases. In the MCK experiments, increasing concentrations of each analyte were injected with an 80 s pulse (30 μL/min) and dissociation times varied depending on the time required to fully dissociate the complex. The double-referenced sensorgrams (raw data subtracted from a blank injection and reference surface responses) were analyzed using a kinetic and/or a steady-state 1:1 binding model. In the SCK experiments, typically six concentrations of each analyte were sequentially injected with 80 s pulses (30 μL/min), and dissociation times varied depending on the time required to dissociate at least 5% of the complex. The double-referenced sensorgrams were fitted using a kinetic 1:1 binding model.
At least three independent replicates were measured for each analyte (ESI section 5). When a steady-state fit was applied, the reported Kd and its uncertainty correspond, respectively, to the average and standard deviations of the Kd obtained in each measurement. When a kinetic fit was applied, the reported rate constants (kon and koff) and their uncertainties correspond, respectively, to the average and standard deviations of the rate constants obtained in each measurement. In this case, reported Kd were calculated using the equation below, and the standard deviation of the rate constants was propagated. [drawing 1]

Where [3] appears, read: SPR, kinetic fit, KD calculated from mean koff and kon, SD propagated, 22 °C, pH 8.0.

Turning to `CC[C@H](C)[C@H](NC(=O)[C@H](C)NC(=O)[C@H](C)NC(=O)[C@H](Cc1ccccc1)NC(=O)[C@H](CCC(=O)O)NC(=O)[C@H](CC(=O)O)NC(=O)[C@H](CC(=O)O)NC(=O)[C@H](CCSC)NC(=O)[C@H](Cc1c[nH]c2ccccc12)NC(C)=O)C(=O)N[C@@H](CCSC)C(=O)N[C@@H](C)C(=O)N[C@H](C(=O)N[C@@H](Cc1c[nH]cn1)C(=O)N[C@@H](C)C(=O)N[C@@H](CC(N)=O)C(=O)N[C@@H](CCC(=O)O)C(=O)N[C@@H](CC(C)C)C(=O)N[C@@H](CCCNC(=N)N)C(=O)N[C@@H](CCC(=O)O)C(=O)N[C@@H](CC(C)C)C(=O)N[C@@H](C)C(=O)N[C@@H](CC(=O)O)C(=O)N[C@@H](CCCCN)C(=O)O)C(C)C` [peptide 11] (Ac-WMDDEFAAIMAVHANELRELADK-OH; C-terminus assumed), the “Average Tm” value in the test with DocSTm [1] stood at 69.0 ± 0.2 °C. Also, the Tm in the test on DocSTm [1] (replicate 1) worked out at 68.8 °C; in the test with DocSTm [1] (replicate 2), 69.2 °C; in the test on DocSTm [1] (replicate 3), 68.9 °C. Further, the Kd at DocSTm [2] (SPR kinetic fit, replicate 1) was 0.13 nM; at DocSTm [2] (SPR kinetic fit, replicate 2), 0.0743 nM; on DocSTm [2] (SPR kinetic fit, replicate 3) it was 0.0769 nM; at DocSTm [2] (setting [3]), 0.084 ± 0.045 nM. In the test on DocSTm [2] (SPR, 22 °C, pH 8.0), the “koff × 10^-6” value is 197 ± 49 ×10^-6 s-1. The “kon × 10^6” value with DocSTm [2] (SPR, 22 °C, pH 8.0) is recorded as 2.350 ± 1.103 ×10^6 M-1 s-1. Also, in the test on DocSTm [2], the “Half-life of the complex” value turned out to be 1.0 ± 0.2 h.

`CC[C@H](C)[C@H](NC(=O)[C@H](C)NC(=O)[C@H](C)NC(=O)[C@H](Cc1ccccc1)NC(=O)[C@H](CCC(=O)O)NC(=O)[C@H](CC(=O)O)NC(=O)[C@H](CC(=O)O)NC(=O)[C@H](CCSC)NC(=O)[C@H](Cc1c[nH]c2ccccc12)NC(C)=O)C(=O)N[C@@H](CCSC)C(=O)N[C@@H](C)C(=O)N[C@H](C(=O)N[C@@H](Cc1c[nH]cn1)C(=O)NCC(=O)N[C@@H](C)C(=O)N[C@@H](CCC(=O)O)C(=O)N[C@@H](CC(C)C)C(=O)N[C@@H](CCCNC(=N)N)C(=O)N[C@@H](CCC(=O)O)C(=O)N[C@@H](CC(C)C)C(=O)N[C@@H](C)C(=O)N[C@@H](CC(=O)O)C(=O)N[C@@H](CCCCN)C(=O)O)C(C)C` [peptide 12] (Ac-WMDDEFAAIMAVHGAELRELADK-OH; C-terminus assumed): the “melting temperature shift ΔTm” value in the test on DocSTm [1] turned out to be 28.2 ± 1.2 °C. In addition, the “Average Tm” value with DocSTm [1] amounted to 71.1 ± 0.7 °C. Moreover, the results for the Tm in the test on DocSTm [1] (replicate 1), in the test on DocSTm [1] (replicate 2) and in the test on DocSTm [1] (replicate 3) were 71.8 °C, 71.0 °C and 70.4 °C, respectively. Besides, the Kd at DocSTm [2] (SPR kinetic fit, replicate 1) is 0.251 nM; on DocSTm [2] (SPR kinetic fit, replicate 2), 0.166 nM; at DocSTm [2] (SPR kinetic fit, replicate 3) it was 0.0853 nM; on DocSTm [2] (SPR kinetic fit, replicate 4), 0.0833 nM; on DocSTm [2] (setting [3]), 0.145 ± 0.076 nM. For the same molecule, the “koff × 10^-6” value in the test with DocSTm [2] (SPR, 22 °C, pH 8.0) is reported as 203 ± 103 ×10^-6 s-1. Further, the “kon × 10^6” value with DocSTm [2] (SPR, 22 °C, pH 8.0) is 1.396 ± 0.154 ×10^6 M-1 s-1. The “Half-life of the complex” value in the test on DocSTm [2] was 1.0 ± 0.5 h.

Turning to `CC[C@H](C)[C@H](NC(=O)[C@H](C)NC(=O)[C@H](C)NC(=O)[C@H](Cc1ccccc1)NC(=O)[C@H](CCC(=O)O)NC(=O)[C@H](CC(=O)O)NC(=O)[C@H](CC(=O)O)NC(=O)[C@H](CCSC)NC(=O)[C@H](Cc1c[nH]c2ccccc12)NC(C)=O)C(=O)N[C@@H](CCSC)C(=O)N[C@@H](C)C(=O)N[C@H](C(=O)N[C@@H](Cc1c[nH]cn1)C(=O)NCC(=O)N[C@@H](CC(N)=O)C(=O)N[C@@H](CCC(=O)O)C(=O)N[C@@H](CC(C)C)C(=O)N[C@@H](C)C(=O)N[C@@H](CCC(=O)O)C(=O)N[C@@H](CC(C)C)C(=O)N[C@@H](C)C(=O)N[C@@H](CC(=O)O)C(=O)N[C@@H](CCCCN)C(=O)O)C(C)C` [peptide 15] (Ac-WMDDEFAAIMAVHGNELAELADK-OH; C-terminus assumed), the “melting temperature shift ΔTm” value with DocSTm [1] amounted to 27.7 ± 0.9 °C. The “Average Tm” value with DocSTm [1] worked out at 70.6 ± 0.1 °C. In addition, the Tm stood at 70.6 °C in the test with DocSTm [1] (replicate 1), 70.7 °C in the test with DocSTm [1] (replicate 2) and 70.4 °C in the test with DocSTm [1] (replicate 3). Also, the Kd was 0.124 nM on DocSTm [2] (SPR kinetic fit, replicate 1); 0.106 nM on DocSTm [2] (SPR kinetic fit, replicate 2); 0.112 nM on DocSTm [2] (SPR kinetic fit, replicate 3); 0.115 ± 0.04 nM on DocSTm [2] (setting [3]). The “koff × 10^-6” value in the test with DocSTm [2] (SPR, 22 °C, pH 8.0) is on record as 185 ± 52 ×10^-6 s-1. In addition, the “kon × 10^6” value with DocSTm [2] (SPR, 22 °C, pH 8.0) is 1.602 ± 0.332 ×10^6 M-1 s-1. Also, the “Half-life of the complex” value in the test with DocSTm [2] stood at 1.0 ± 0.3 h.

Take `CC[C@H](C)[C@H](NC(=O)[C@H](C)NC(=O)[C@H](C)NC(=O)[C@H](Cc1ccccc1)NC(=O)[C@H](CCC(=O)O)NC(=O)[C@H](CC(=O)O)NC(=O)[C@H](CC(=O)O)NC(=O)[C@H](CCSC)NC(=O)[C@H](Cc1c[nH]c2ccccc12)NC(C)=O)C(=O)N[C@@H](CCSC)C(=O)N[C@@H](C)C(=O)N[C@H](C(=O)N[C@@H](Cc1c[nH]cn1)C(=O)NCC(=O)N[C@@H](CC(N)=O)C(=O)N[C@@H](CCC(=O)O)C(=O)N[C@@H](CC(C)C)C(=O)N[C@@H](CCCNC(=N)N)C(=O)N[C@@H](C)C(=O)N[C@@H](CC(C)C)C(=O)N[C@@H](C)C(=O)N[C@@H](CC(=O)O)C(=O)N[C@@H](CCCCN)C(=O)O)C(C)C` [peptide 16] (Ac-WMDDEFAAIMAVHGNELRALADK-OH; C-terminus assumed): in the test on DocSTm [1], the “melting temperature shift ΔTm” value was determined as 30.7 ± 0.9 °C. Also, the “Average Tm” value with DocSTm [1] stood at 73.6 ± 0.2 °C. For the same molecule, the figures for the Tm in the test with DocSTm [1] (replicate 1), in the test with DocSTm [1] (replicate 2) and with DocSTm [1] (replicate 3) were 73.5 °C, 73.5 °C and 73.9 °C, respectively. The Kd at DocSTm [2] (SPR kinetic fit, replicate 1) was 0.0687 nM; at DocSTm [2] (SPR kinetic fit, replicate 2) it was 0.0703 nM; on DocSTm [2] (SPR kinetic fit, replicate 3), 0.0518 nM; at DocSTm [2] (setting [3]), 0.065 ± 0.022 nM. In addition, the “koff × 10^-6” value with DocSTm [2] (SPR, 22 °C, pH 8.0) was 136 ± 41 ×10^-6 s-1. Besides, the “kon × 10^6” value in the test with DocSTm [2] (SPR, 22 °C, pH 8.0) is 2.101 ± 0.333 ×10^6 M-1 s-1. The “Half-life of the complex” value in the test on DocSTm [2] was 1.4 ± 0.4 h.

Turning to `CC[C@H](C)[C@H](NC(=O)[C@H](C)NC(=O)[C@H](C)NC(=O)[C@H](Cc1ccccc1)NC(=O)[C@H](CCC(=O)O)NC(=O)[C@H](CC(=O)O)NC(=O)[C@H](CC(=O)O)NC(=O)[C@H](CCSC)NC(=O)[C@H](Cc1c[nH]c2ccccc12)NC(C)=O)C(=O)N[C@@H](CCSC)C(=O)N[C@@H](C)C(=O)N[C@H](C(=O)N[C@@H](Cc1c[nH]cn1)C(=O)NCC(=O)N[C@@H](CC(N)=O)C(=O)N[C@@H](CCC(=O)O)C(=O)N[C@@H](CC(C)C)C(=O)N[C@@H](CCCNC(=N)N)C(=O)N[C@@H](CCC(=O)O)C(=O)N[C@@H](CC(C)C)C(=O)N[C@@H](C)C(=O)N[C@@H](C)C(=O)N[C@@H](CCCCN)C(=O)O)C(C)C` [peptide 18] (Ac-WMDDEFAAIMAVHGNELRELAAK-OH; C-terminus assumed), the “melting temperature shift ΔTm” value with DocSTm [1] is 28.0 ± 0.9 °C. Moreover, the “Average Tm” value with DocSTm [1] was found to be 70.9 ± 0.3 °C. Also, the Tm came out at 71.1 °C in the test with DocSTm [1] (replicate 1), 71.0 °C with DocSTm [1] (replicate 2) and 70.6 °C in the test with DocSTm [1] (replicate 3). Besides, the Kd was 0.0532 nM on DocSTm [2] (SPR kinetic fit, replicate 1); 0.0189 nM at DocSTm [2] (SPR kinetic fit, replicate 2); 0.0385 nM at DocSTm [2] (SPR kinetic fit, replicate 3); 0.033 ± 0.018 nM on DocSTm [2] (setting [3]). Further, the “koff × 10^-6” value with DocSTm [2] (SPR, 22 °C, pH 8.0) is 84 ± 33 ×10^-6 s-1. Moreover, the “kon × 10^6” value in the test on DocSTm [2] (SPR, 22 °C, pH 8.0) was 2.508 ± 0.964 ×10^6 M-1 s-1. In addition, the “Half-life of the complex” value with DocSTm [2] is 2.3 ± 0.9 h.
